From patent US9079922B2, “2-oxo-oxazolidin-3,5-diyl antibiotic derivatives” (priority 2011, dated 2015)
In brackets after ≈: the same amount, converted by molar mass.

Tests used:
[1] = tested on: Staphylococcus aureus A798; test: Bacterial growth minimal inhibitory concentration (microdilution, cation-adjusted Mueller-Hinton Broth); assay type: cell-based; conditions: multiply-resistant strain, in particular quinolone resistant, read-out: MIC for S. aureus A798
Protocol: (§1) Bacterial Growth Minimal Inhibitory Concentrations:
(§2) Minimal inhibitory concentrations (MICs; mg/l) were determined in cation-adjusted Mueller-Hinton Broth by a microdilution method following the description given in “Methods for Dilution Antimicrobial Susceptibility Tests for Bacteria that Grow Aerobically”, Approved standard, 7th ed., Clinical and Laboratory Standards Institute (CLSI) Document M7-A7, Wayne, Pa., USA, 2006.
(§3) All Example compounds were tested against several Gram positive and Gram negative bacteria. Staphylococcus aureus A798 and Acinetobacter baumanii T6474 are multiply-resistant strains, in particular quinolone resistant.

[2] = tested on: Acinetobacter baumanii T6474; test: as above; assay type: cell-based; conditions: Acinetobacter baumannii, multiply-resistant strain, in particular quinolone resistant
Protocol: as §1, §2, §3

| SMILES | MIC [1] [µg/mL] | MIC [2] [µg/mL] |
| --- | --- | --- |
| O=C(O)c1cn(C2CC2)c2cc(N3CCNCC3)c(F)cc2c1=O [Cipro, ciprofloxacin, reference compound] | > 32 | > 32 |
| O=C1CSc2ccc(N3C[C@@H](CN4CCN(c5cc6c(cc5F)c(=O)c(C(=O)O)cn6C5CC5)CC4)OC3=O)cc2N1 [Example 1, 1-cyclopropyl-6-fluoro-4-oxo-7-{4-[(R)-2-oxo-3-(3-oxo-3,4-dihydro-2H-benzo[1,4]thiazin-6-yl)-oxazolidin-5-ylmethyl]-piperazin-1-yl}-1,4-dihydro-quinoline-3-carboxylic acid] | ≤ 0.016 | 0.125 (≈ 0.211 µM) |
| O=C1CSc2ccc(N3C[C@@H](CNC4CN(c5nc6c(cc5F)c(=O)c(C(=O)O)cn6C5CC5)C4)OC3=O)cc2N1 [Example 2, 1-cyclopropyl-6-fluoro-4-oxo-7-(3-{[(R)-2-oxo-3-(3-oxo-3,4-dihydro-2H-benzo[1,4]thiazin-6-yl)-oxazolidin-5-ylmethyl]-amino}-azetidin-1-yl)-1,4-dihydro-[1,8]naphthyridine-3-carboxylic acid] | ≤ 0.016 | 0.125 (≈ 0.215 µM) |
| O=C1CSc2ccc(N3C[C@@H](CN4CCN(c5cc6c(cc5F)c(=O)c(C(=O)O)cn6C5CC5)CC4)OC3=O)nc2N1 [Example 3, 1-cyclopropyl-6-fluoro-4-oxo-7-{4-[(R)-2-oxo-3-(3-oxo-3,4-dihydro-2H-pyrido[3,2-b][1,4]thiazin-6-yl)-oxazolidin-5-ylmethyl]-piperazin-1-yl}-1,4-dihydro-quinoline-3-carboxylic acid] | ≤ 0.016 | 0.063 (≈ 0.106 µM) |
| O=C1CSc2ccc(N3C[C@@H](CN4CCN(c5nc6c(cc5F)c(=O)c(C(=O)O)cn6C5CC5)CC4)OC3=O)cc2N1 [Example 4, 1-cyclopropyl-6-fluoro-4-oxo-7-{4-[(R)-2-oxo-3-(3-oxo-3,4-dihydro-2H-benzo[1,4]thiazin-6-yl)-oxazolidin-5-ylmethyl]-piperazin-1-yl}-1,4-dihydro-[1,8]naphthyridine-3-carboxylic acid] | ≤ 0.016 | 0.125 (≈ 0.21 µM) |
| O=C1CSc2ccc(N3C[C@@H](CNC4CN(c5nc6c(cc5F)c(=O)ccn6C5CC5)C4)OC3=O)cc2N1 [Example 5, 6-((R)-5-{[1-(8-cyclopropyl-3-fluoro-5-oxo-5,8-dihydro-[1,8]naphthyridin-2-yl)-azetidin-3-ylamino]-methyl}-2-oxo-oxazolidin-3-yl)-4H-benzo[1,4]thiazin-3-one] | ≤ 0.016 | 1 (≈ 1.86 µM) |
| O=C1COc2ccc(N3C[C@@H](CNC4CN(c5nc6c(cc5F)c(=O)c(C(=O)O)cn6C5CC5)C4)OC3=O)nc2N1 [Example 6, 1-cyclopropyl-6-fluoro-4-oxo-7-(3-{[(R)-2-oxo-3-(3-oxo-3,4-dihydro-2H-pyrido[3,2-b][1,4]oxazin-6-yl)-oxazolidin-5-ylmethyl]-amino}-azetidin-1-yl)-1,4-dihydro-[1,8]naphthyridine-3-carboxylic acid] | ≤ 0.016 | 0.031 (≈ 0.0548 µM) |
| COc1c(N2CC(NC[C@@H]3CN(c4ccc5c(c4)NC(=O)CS5)C(=O)O3)C2)ccc2c(=O)c(C(=O)O)cn(C3CC3)c12 [Example 7, 1-cyclopropyl-8-methoxy-4-oxo-7-(3-{[(R)-2-oxo-3-(3-oxo-3,4-dihydro-2H-benzo[1,4]thiazin-6-yl)-oxazolidin-5-ylmethyl]-amino}-azetidin-1-yl)-1,4-dihydro-quinoline-3-carboxylic acid] | 0.063 (≈ 0.106 µM) | 0.25 (≈ 0.423 µM) |
| COc1c(N2CC(NC[C@@H]3CN(c4ccc5c(n4)NC(=O)CO5)C(=O)O3)C2)ccc2c(=O)c(C(=O)O)cn(C3CC3)c12 [Example 8, 1-cyclopropyl-8-methoxy-4-oxo-7-(3-{[(R)-2-oxo-3-(3-oxo-3,4-dihydro-2H-pyrido[3,2-b][1,4]oxazin-6-yl)-oxazolidin-5-ylmethyl]-amino}-azetidin-1-yl)-1,4-dihydro-quinoline-3-carboxylic acid] | 0.063 (≈ 0.109 µM) | 0.25 (≈ 0.434 µM) |

Next, values leading:

| MIC [1] [µg/mL] | MIC [2] [µg/mL] | SMILES |
| --- | --- | --- |
| 0.125 | 0.25 | O=C1COc2ccc(N3C[C@H](CNC4CCN(c5nc6c(cc5F)c(=O)c(C(=O)O)cn6C5CC5)C4)OC3=O)nc2N1 (mixture of isomers) [Example 21, 1-cyclopropyl-6-fluoro-4-oxo-7-((RS)-3-{[(S)-2-oxo-3-(3-oxo-3,4-dihydro-2H-pyrido[3,2-b][1,4]oxazin-6-yl)-oxazolidin-5-ylmethyl]-amino}-pyrrolidin-1-yl)-1,4-dihydro-[1,8]naphthyridine-3-carboxylic acid] |
| 0.063 (≈ 0.118 µM) | 0.06 (≈ 0.112 µM) | CCn1cc(C(=O)O)c(=O)c2ccc(N3CC(NC[C@@H]4CN(c5ccc6c(n5)NC(=O)CO6)C(=O)O4)C3)nc21 [Example 9, 1-ethyl-4-oxo-7-(3-{[(R)-2-oxo-3-(3-oxo-3,4-dihydro-2H-pyrido[3,2-b][1,4]oxazin-6-yl)-oxazolidin-5-ylmethyl]-amino}-azetidin-1-yl)-1,4-dihydro-[1,8]naphthyridine-3-carboxylic acid] |
| 0.063 (≈ 0.112 µM) | 0.25 (≈ 0.444 µM) | O=C1CSc2ccc(N3C[C@@H](CNC4CN(c5ccc6c(=O)c(C(=O)O)cn(C7CC7)c6n5)C4)OC3=O)cc2N1 [Example 10, 1-cyclopropyl-4-oxo-7-(3-{[(R)-2-oxo-3-(3-oxo-3,4-dihydro-2H-benzo[1,4]thiazin-6-yl)-oxazolidin-5-ylmethyl]-amino}-azetidin-1-yl)-1,4-dihydro-[1,8]naphthyridine-3-carboxylic acid] |
| 0.063 (≈ 0.121 µM) | 0.063 (≈ 0.121 µM) | Cn1cc(C(=O)O)c(=O)c2ccc(N3CC(NC[C@@H]4CN(c5ccc6c(n5)NC(=O)CO6)C(=O)O4)C3)nc21 [Example 11, 1-methyl-4-oxo-7-(3-{[(R)-2-oxo-3-(3-oxo-3,4-dihydro-2H-pyrido[3,2-b][1,4]oxazin-6-yl)-oxazolidin-5-ylmethyl]-amino}-azetidin-1-yl)-1,4-dihydro-[1,8]naphthyridine-3-carboxylic acid] |
| ≤ 0.016 | ≤ 0.016 | Cn1cc(C(=O)O)c(=O)c2cc(F)c(N3CC(NC[C@@H]4CN(c5ccc6c(n5)NC(=O)CO6)C(=O)O4)C3)nc21 [Example 12, 6-fluoro-1-methyl-4-oxo-7-(3-{[(R)-2-oxo-3-(3-oxo-3,4-dihydro-2H-pyrido[3,2-b][1,4]oxazin-6-yl)-oxazolidin-5-ylmethyl]-amino}-azetidin-1-yl)-1,4-dihydro-[1,8]naphthyridine-3-carboxylic acid] |
| ≤ 0.016 | 1 (≈ 1.62 µM) | O=C1COc2ccc(N3C[C@@H](CNC4CN(c5nc6c(cc5F)c(=O)c(C(=O)O)cn6Cc5ccccc5)C4)OC3=O)nc2N1 [Example 13, 1-benzyl-6-fluoro-4-oxo-7-(3-{[(R)-2-oxo-3-(3-oxo-3,4-dihydro-2H-pyrido[3,2-b][1,4]oxazin-6-yl)-oxazolidin-5-ylmethyl]-amino}-azetidin-1-yl)-1,4-dihydro-[1,8]naphthyridine-3-carboxylic acid] |
| 0.031 (≈ 0.0566 µM) | 0.06 (≈ 0.11 µM) | O=C1COc2ccc(N3C[C@@H](CNC4CN(c5ccc6c(=O)c(C(=O)O)cn(C7CC7)c6n5)C4)OC3=O)nc2N1 [Example 14, 1-cyclopropyl-4-oxo-7-(3-{[(R)-2-oxo-3-(3-oxo-3,4-dihydro-2H-pyrido[3,2-b][1,4]oxazin-6-yl)-oxazolidin-5-ylmethyl]-amino}-azetidin-1-yl)-1,4-dihydro-[1,8]naphthyridine-3-carboxylic acid] |
| 0.25 (≈ 0.439 µM) | 4 (≈ 7.02 µM) | O=C1COc2ccc(N3C[C@@H](CNC4CN(c5nc6c(cc5F)c(=O)c(C(=O)O)cn6CCO)C4)OC3=O)nc2N1 [Example 15, 6-fluoro-1-(2-hydroxy-ethyl)-4-oxo-7-(3-{[(R)-2-oxo-3-(3-oxo-3,4-dihydro-2H-pyrido[3,2-b][1,4]oxazin-6-yl)-oxazolidin-5-ylmethyl]-amino}-azetidin-1-yl)-1,4-dihydro-[1,8]naphthyridine-3-carboxylic acid] |
| ≤ 0.016 | 0.125 (≈ 0.21 µM) | O=C1CSc2ccc(N3C[C@H](CN4CCN(c5nc6c(cc5F)c(=O)c(C(=O)O)cn6C5CC5)CC4)OC3=O)cc2N1 [Example 16, 1-cyclopropyl-6-fluoro-4-oxo-7-{4-[(S)-2-oxo-3-(3-oxo-3,4-dihydro-2H-benzo[1,4]thiazin-6-yl)-oxazolidin-5-ylmethyl]-piperazin-1-yl}-1,4-dihydro-[1,8]naphthyridine-3-carboxylic acid] |
| ≤ 0.016 | ≤ 0.016 | O=C1COc2ccc(N3C[C@@H](CNC4CCN(c5nc6c(cc5F)c(=O)c(C(=O)O)cn6C5CC5)CC4)OC3=O)nc2N1 [Example 17, 1-cyclopropyl-6-fluoro-4-oxo-7-(4-{[(R)-2-oxo-3-(3-oxo-3,4-dihydro-2H-pyrido[3,2-b][1,4]oxazin-6-yl)-oxazolidin-5-ylmethyl]-amino}-piperidin-1-yl)-1,4-dihydro-[1,8]naphthyridine-3-carboxylic acid] |
| 0.031 (≈ 0.0535 µM) | 0.25 (≈ 0.431 µM) | O=C1COc2ccc(N3C[C@@H](CN4CCN(c5nc6c(cc5F)c(=O)c(C(=O)O)cn6C5CC5)CC4)OC3=O)nc2N1 [Example 18, 1-cyclopropyl-6-fluoro-4-oxo-7-{4-[(R)-2-oxo-3-(3-oxo-3,4-dihydro-2H-pyrido[3,2-b][1,4]oxazin-6-yl)-oxazolidin-5-ylmethyl]-piperazin-1-yl}-1,4-dihydro-[1,8]naphthyridine-3-carboxylic acid] |
| ≤ 0.016 | 0.063 (≈ 0.109 µM) | O=C1COc2ccc(N3C[C@H](CN4CCN(c5nc6c(cc5F)c(=O)c(C(=O)O)cn6C5CC5)CC4)OC3=O)nc2N1 [Example 19, 1-cyclopropyl-6-fluoro-4-oxo-7-{4-[(S)-2-oxo-3-(3-oxo-3,4-dihydro-2H-pyrido[3,2-b][1,4]oxazin-6-yl)-oxazolidin-5-ylmethyl]-piperazin-1-yl}-1,4-dihydro-[1,8]naphthyridine-3-carboxylic acid] |
